Results taken from EP4628074A1, “N-PALMITOYLETHANOLAMIDE FOR USE IN COMBINATION WITH A NON-STEROIDAL ANTI-INFLAMMATORY DRUG IN THE TREATMENT OF INFLAMMATORY PAIN” (priority 2024, dated 2025).
Several values for one entry are separate records, joined by “and”; a condition that tells them apart may be missing. Equal entries are not always repeated. Entries after “also recorded” stand apart in the source; their conditions may differ.

Columns and labels:
[1] = system: CFA-induced inflammatory pain; assay: Paw pressure test, CFA-induced inflammatory pain, single (acute) oral administration (Experiment 1); format: in vivo, male Sprague-Dawley rats; conditions: for Pr > F: PEA 10 mg/kg
Source text: In the in vivo experimentation, male Sprague-Dawley rats (200-250 g) (Envigo, Varese, Italy) fed "ad libitum" and housed in cages with a controlled sleep/wake cycle were used.
Before the start of the study, the animals were subjected to a 1-week acclimatization period at the Center for Laboratory Animal Sheltering (Ce.S.A.L.) of the University of Florence, following all experimental procedures and protocols compliant with the principles of care and welfare of laboratory animals approved by the Italian Ministry of Health (Italian Legislative Decree 2014/26), European directives (EU Directive 2010/63) and the ARRIVE guidelines.
In order to cause inflammatory pain, Complete Freund's Adjuvant (CFA) was injected at a rate of 50 µL into the joint cavity of the left leg between the tibiofibular and tarsal bones after light anesthesia with 2% isoflurane. The control group was subjected to the same procedure, injecting an equal volume of saline solution (vehicle).
The animals were divided into 9 groups of 6 rats each and treated acutely per os with a single administration, starting from the seventh day after the induction of joint damage. • Group 1: healthy rats subjected to intra-articular injection of saline (vehicle group) • Group 2: rats injected with CFA and treated with 1% CMC, corresponding to the vehicle in which the compounds for the treatments of the following groups were suspended (CFA group); • Group 3: rats injected with CFA and treated with micronized PEA 10 mg/kg; • Group 4: rats injected with CFA and treated with diclofenac 30 mg/kg; • Group 5: rats injected with CFA and treated with diclofenac 3 mg/kg; • Group 6: rats injected with CFA and treated with diclofenac 3 mg/kg + micronized PEA 10 mg/kg; • Group 7: rats injected with CFA and treated with meloxicam 30 mg/kg; • Group 8: rats injected with CFA and treated with meloxicam 3 mg/kg; • Group 9: rats injected with CFA and treated with meloxicam 3 mg/kg + micronized PEA 10 mg/kg.
All animals were subjected to the paw pressure test at the level of the ipsilateral paw, performed before (T0) or after 15, 30, 45 and 60 minutes after the single administration of the treatment (T15, T30, T45 and T60, respectively). In particular, the nociceptive threshold was calculated with an analgesiometer (Ugo Basile, Varese, Italy) by applying an increasing pressure at constant speed (32 g/s) by means of a non-pointed conical support on the dorsal surface of the ipsilateral paw with respect to the injection of CFA (or vehicle). The nociceptive threshold was expressed as the force (in decagrams, dag) to which the animal reacts by retracting the paw or vocalizing (Leighton GE et al. kappa-Opioid agonists produce antinociception after i.v. and i.c.v. but not intrathecal administration in the rat. Br J Pharmacol. 1988; 93: 553-60).
The values emerged from the paw pressure test in the different treatment groups were compared with each other using the Generalized Linear Mixed Model (GLMM) followed by post-hoc analysis based on Tukey-Kramer correction for multiple comparisons, referring to the single treatment group, considering all the times.
The AUC was analyzed by a two-way factor analysis of variance (2x2 ANOVA), after plotting the mean values, according to the procedure shown by Slinker BK. The statistics of synergism. J Mol Cell Cardiol. 1998 Apr;30(4):723-31. The values were expressed as mean ± standard error mean (SEM). All the statistical analyses were carried out using the software SAS, version 9.4 (SAS Institute, Cary, NC, USA). The value p < 0.05 was considered significant.

[2] = system: collagen-induced arthritis; assay: Arthritis severity score in collagen-induced arthritis (CIA) (Experiment 2); format: in vivo, Female Lewis rats; conditions: PEA 30 mg/kg; for Pr > F: 2x2 factor analysis on severity of arthritis, ibuprofen 5 mg/kg, PEA*IBU = interaction (synergy)
Experimental: (§1) Rheumatoid arthritis is a disease characterized by inflammatory pain, in which the involved joints present swelling, stiffness and often erosive processes. Female Lewis rats were maintained on a 12/12 hour light/dark cycle, at constant temperature and humidity and acclimated for 1 week, with free access to water and standard diet. […] Arthritis score, change in paw volume (mL), and change in body weight (g) were measured as indicators of inflammatory pain. Arthritis severity was measured every other day starting on day 25, using the following score: 0 = no sign of arthritis; 1 = swelling and/or redness of the paw or toe; 2 = two joints involved; 3 = more than two joints involved; and 4 = severe arthritis of the entire paw and toes. The arthritis index for each subject was calculated by adding the four scores of the individual paws. The change in paw volume compared to day 21 was assessed every two days by plethysmometry (Ugo Basile) starting from day 25. The change in weight was measured for each animal on day 21 and then every two days starting from day 25.
(§2) The chosen inflammatory pain indicators were analyzed via Generalized Linear Model (GLM) followed by post-hoc analysis based on Tukey-Kramer correction for multiple comparisons. […] All analyzes were performed using SAS software, version 9.4 (SAS Institute, Cary, NC, USA). P value < 0.05 was considered significant.

[3] = system: collagen-induced arthritis; assay: Paw volume by plethysmometry in collagen-induced arthritis (CIA) (Experiment 2); format: in vivo, Female Lewis rats; conditions: for Pr > F: 2x2 factorial analysis on swelling of the paw, PEA 30 mg/kg, ibuprofen 5 mg/kg, PEA*IBU = interaction (synergy)
Experimental: as §1
The chosen inflammatory pain indicators were analyzed via Generalized Linear Model (GLM) followed by post-hoc analysis based on Tukey-Kramer correction for multiple comparisons. […] All analyzes were performed using SAS software, version 9.4 (SAS Institute, Cary, NC, USA).

[4] = system: collagen-induced arthritis; assay: Body weight change in collagen-induced arthritis (CIA) (Experiment 2); format: in vivo, Female Lewis rats; conditions: PEA 30 mg/kg; for Pr > F: 2x2 factorial analysis on weight change, ibuprofen 5 mg/kg, PEA*IBU = interaction (synergy)
Experimental: as §1, §2

[5] = in vivo; cited from earlier work

For `CCCCCCCCCCCCCCCC(=O)NCCO` [PEA, N-palmitoylethanolamide], the “Pr > F” value ([1]; ANOVA 2x2 on AUC of paw pressure test (Figure 2), diclofenac 3 mg/kg, line PEA*Dicl 3 = interaction (synergy)) was 0.0002, the “Pr > F” value ([1]; ANOVA 2x2 on AUC of paw pressure test (Figure 4), meloxicam 3 mg/kg, line PEA*Mel 3 = interaction (synergy)) was 0.0003 and the “p with respect to the CFA group (pain tolerance threshold)” value ([1]; CFA-injected rats, single per os administration on day 7, micronized PEA 10 mg/kg and/or NSAID 3 mg/kg, GLMM with Tukey-Kramer) was 0.9674 and 0.9588. For the same molecule, the “pain tolerance threshold with respect to the CFA group” value ([1]; CFA-injected rats, single per os administration on day 7 after CFA, micronized PEA 10 mg/kg and/or NSAID 3 mg/kg, T0-T60 min, all times considered) was “no significant difference; also recorded: no significant effect”, the “Pr > F” value ([2]; Giorno 33) was <0,0001 and the “Pr > F” value ([2]; Giorno 35) was <0,0001. For the same molecule, the “effect on arthritis score” value ([2]; day 31 up to end of study (day 35), oral from day 25, low-dose IBU 5 mg/kg, high-dose IBU 30 mg/kg) was “had no effect”, the “Pr > F” value ([3]; 6° giorno di trattamento) was 0,0002 and the “Pr > F” value ([3]; 8° giorno di trattamento) was <0,0001. The “Pr > F” value ([3]; 10° giorno di trattamento) was <0,0001, the “effect on paw volume increase” value ([3]; single administration of PEA 30 mg/kg or ibuprofen 5 mg/kg (not combined)) was “had no effect” and the “Pr > F” value ([4]; 6° giorno di trattamento (G31)) was <0,0001. The “Pr > F” value ([4]; 8° giorno di trattamento (G33)) was <0,0001, the “Pr > F” value ([4]; 10° giorno di trattamento (G35)) was <0,0001 and the “effect on weight reduction induced by arthritis pain” value ([4]; from the 4th day of treatment (day 29) for the entire observation period, low-dose ibuprofen 5 mg/kg, high-dose IBU 30 mg/kg) was “neither PEA nor low-dose ibuprofen exerted any effect”. The “dose free of acute and sub-chronic toxicity” value [5] was no less than 1000 mg/kg daily.
